Reference: patent US20260217763A1, “Novel Peptide and Use Thereof” (Zincure Corp., priority 2022, published 2026)
“Also recorded” adds a separate entry of the source.

How the values were obtained:
Format in all cases: cell-based
[1] = tested on: EGFP-Tau P301L aggregates in HEK293T cell line; assay: Mutant tau protein aggregates after overexpression, Western blot; conditions: bafilomycin 100 nM alone compared to control
Protocol: FIG. 4A is a result of Western blot analysis of the level of tau protein expression in protein samples obtained 18 h after treatment of HEK293T cells transfected to express tau protein with 100 nM bafilomycin A1 alone or in combination with 30 μM of some variant alloferon peptides according to one embodiment of the present invention, for investigating the degradation of tau protein aggregates by treatment with some variant alloferon peptides (DALS1, DAL-VS_V(−Q), DAL1, and DALV2) according to one embodiment of the present invention. FIG. 4B is a graph representing the results of quantifying relative expression of the tau protein. […]
The present inventors then investigated whether some of the variant peptides (DALS1, DALVS_V, DAL1, DALV2) comprising the amino acid sequences designated as SEQ ID NO: 3 through 16 could resolve SOD1 aggregates that formed after transient transfection of SOD1 protein into the 293T cell line. […] Then, it was subjected to protein quantification using BCA protein assay kit (Pierce Biotechnology, USA), and centrifuged at 17,000×g for 20 min, where the supernant was discarded and only the cell debris was taken to obtain protein. Subsequently, 5× sample buffer (300 mM Tris, pH 6.8, 10% SDS, 50% Glycerol, 0.1% BPB, 2.5% Mercaptoethanol, 100 mM DTT) was mixed with the quantified sample, denatured at 95° C. for 5 min, and prepared for analysis. […]

[2] = tested on: EGFP-α-synuclein A53T aggregates in HEK293T cell line; assay: α-synuclein protein aggregates after overexpression, Western blot; conditions: bafilomycin 100 nM alone compared to the control
Protocol: FIG. 5 is a result of Western blot analysis of the level of α-synuclein protein expression in protein samples obtained 18 h after treatment of HEK293T cells transfected to express α-synuclein with 100 nM bafilomycin A1 alone or in combination with 30 µM of some variant alloferon peptides according to one embodiment of the present invention, for investigating the degradation of α-synuclein protein aggregates by treatment with some variant alloferon peptides (DALS1, DAL-VS_V(−Q), DAL1, and DALV2) according to one embodiment of the present invention.
(§1) The present inventors then investigated whether some of the variant peptides (DALS1, DALVS_V, DAL1, DALV2) comprising the amino acid sequences designated as SEQ ID NO: 3 through 16 could resolve SOD1 aggregates that formed after transient transfection of SOD1 protein into the 293T cell line. To this end, EGFP-SOD1 G93A DNA was transiently transfected into the HEK293T cell line using Lipofectamine 2000. After transfection, the cell lines were incubated in a cell culture machine at 37° C. and 5% CO2 for 30 h, and the culture medium was replaced with Minimum Essential Medium (MEM, Gibco, USA). Subsequently, the cells were pretreated with 100 nM bafilomycin for 30 min, which were then treated with μM variant alloferon peptide and incubated for 18 h. […] Then, it was subjected to protein quantification using BCA protein assay kit (Pierce Biotechnology, USA), and centrifuged at 17,000×g for 20 min, where the supernant was discarded and only the cell debris was taken to obtain protein. Subsequently, 5× sample buffer (300 mM Tris, pH 6.8, 10% SDS, 50% Glycerol, 0.1% BPB, 2.5% Mercaptoethanol, 100 mM DTT) was mixed with the quantified sample, denatured at 95° C. for 5 min, and prepared for analysis. […] Protein signals were detected using enhanced chemiluminescence (INTRON Biotechnology, South Korea) and a bio-imaging system (MF-Chemibis, Shimadzu Scientific Korea Corporation, South Korea). […]

[3] = tested on: EGFP-SOD1 G93A aggregates in HEK293T cell line; assay: SOD1 protein aggregates after SOD1 overexpression, Western blot; conditions: bafilomycin 100 nM alone compared to the control
Protocol: FIG. 3A is a result of Western blot analysis of the level of SOD1 protein expression in protein samples obtained 18 h after treatment of HEK293T cells transfected to express SOD1 with 100 nM bafilomycin A1 alone or in combination with 30 μM of some variant alloferon peptides according to one embodiment of the present invention, for investigating the degradation of SOD1 protein aggregates by treatment with some variant alloferon peptides (DALS1, DAL-VS_V(−Q), DAL1, and DALV2) according to one embodiment of the present invention. FIG. 3B is a graph representing the results of quantifying relative expression of the SOD1 protein. In FIG. 3B, * indicates a significant difference compared to the treatment with bafilomycin alone (* p<0.05).
The present inventors then investigated whether some of the variant peptides (DALS1, DALVS_V, DAL1, DALV2) comprising the amino acid sequences designated as SEQ ID NO: 3 through 16 could resolve SOD1 aggregates that formed after transient transfection of SOD1 protein into the 293T cell line. To this end, EGFP-SOD1 G93A DNA was transiently transfected into the HEK293T cell line using Lipofectamine 2000. After transfection, the cell lines were incubated in a cell culture machine at 37° C. and 5% CO2 for 30 h, and the culture medium was replaced with Minimum Essential Medium (MEM, Gibco, USA). Subsequently, the cells were pretreated with 100 nM bafilomycin for 30 min, which were then treated with μM variant alloferon peptide and incubated for 18 h. After that, proteinase inhibitors and phosphatase inhibitors (2 μg/ml aprotinin, 2 μg/ml leupeptin, 1 μg/ml pepstatin A, 1 mM phenyl-methylsulfonyl fluoride (PMSF), 1 mM Na3 VO4, 5 mM NaF and 10 mM Na4P2O7) were put into a 6-well culture dish at 200 μl per well to lyse the cells. The obtained cell lysate was first left at 30 min for 4° C. Then, it was subjected to protein quantification using BCA protein assay kit (Pierce Biotechnology, USA), and centrifuged at 17,000×g for 20 min, where the supernant was discarded and only the cell debris was taken to obtain protein. Subsequently, 5× sample buffer (300 mM Tris, pH 6.8, 10% SDS, 50% Glycerol, 0.1% BPB, 2.5% Mercaptoethanol, 100 mM DTT) was mixed with the quantified sample, denatured at 95° C. for 5 min, and prepared for analysis. Then, electrophoresis was performed using 8% to 15% SDS-polyacrylamide gel, and the proteins separated by their sizes were transferred to polyvinylidene difluoride (PVDF) membranes (Millipore, USA). The protein-transferred membranes were then blocked with 3% skim milk powder in TBST for 1 h. […] Protein signals were detected using enhanced chemiluminescence (INTRON Biotechnology, South Korea) and a bio-imaging system (MF-Chemibis, Shimadzu Scientific Korea Corporation, South Korea).

[4] = tested on: H4 cell lines (GL-H4) expressing GFP-linked LC3; assay: Analysis of autophagic flow blocked by bafilomycin A-1 (LC3-GFP spots); conditions: bafilomycin (Baf A1) 100 nM alone, GL-H4 cells
Protocol: FIGS. 2A to 2C are series of fluorescence micrographs of LC3-GFP spots 12 h after treating H4 cell line (GL-H4) that stably overexpresses GFP-LC3 protein with various variant alloferon peptides according to one embodiment of the present invention in combination with bafilomycin at a concentration of 20 μM, showing that autophagic flux blocked by bafilomycin A-1 is restored by the variant alloferon peptides according to one embodiment of the present invention. FIGS. 2D to 2F are graphs showing quantification of the fluorescence intensity of LC3-GFP spots 12 h after treatment of the GL-H4 cell line with the variant alloferon peptides according to one embodiment of the present invention in combination with bafilomycin at a concentration of 20 μM.
H4 cell line (GL-H4) and HEK293T cell line permanently transfected with GFP-LC3 plasmid were used in the present invention. The cell culture medium was Minimum Essential Medium (MEM, WellGene) supplemented with 10% fetal bovine serum (Hyclone, USA) and antibiotic and antifungal mixture (WellGene, Korea) and cultured in a cell culture machine at 37° C. and 5% CO2.
To investigate the effect of peptides comprising the amino acid sequences designated as SEQ ID NO: 3 to 16 on autophagic flow, the present inventors treated H4 cell lines (GL-H4) expressing GFP-linked LC3 with the peptides (20 μM) and/or the autophagic inhibitor Bafilomycin A-1 (Baf A1, 100 nM) to inhibit autophagy, and then the effect of the variant alloferon peptides according to one embodiment of the present invention was investigated by fluorescence microscopy analysis.

[5] = tested on: GFP-mHttQ74 aggregates in HEK293T cell line; assay: Mutant huntingtin protein aggregates after overexpression, Western blot; conditions: bafilomycin 100 nM alone compared to the control
Protocol: FIG. 6 is a result of Western blot analysis of the level of mutant huntingtin protein expression in protein samples obtained 18 h after treatment of HEK293T cells transfected to express mutant huntingtin protein with 100 nM bafilomycin A1 alone or in combination with 30 μM of some variant alloferon peptides according to one embodiment of the present invention, for investigating the degradation of mutant huntingtin protein aggregates by treatment with some variant alloferon peptides (DALS1, DAL-VS_V(−Q), DAL1, and DALV2) according to one embodiment of the present invention.
as §1

CO/C1=C\C(C)=C\[C@@H](C)[C@@H](O)[C@@H](C)C/C(C)=C/C=C/[C@H](OC)[C@@H]([C@@H](C)[C@@H](O)[C@H](C)[C@@]2(O)C[C@@H](O)[C@H](C)[C@@H](C(C)C)O2)OC1=O [bafilomycin, Bafilomycin A-1, reference compound]
mutant tau protein aggregates [1]: increased | α-synuclein protein aggregates [2]: increased | SOD1 protein aggregates [3]: increased | number and size of LC3 spots [4]: significantly increased; also recorded: significant increase in the number and size of LC3 spots | mutant huntingtin protein aggregates [5]: increased
